Results as given in ChEMBL document CHEMBL3507680, “University of Dundee, Gates Library screen for HepG2 cell viability”.

Assay: Human HepG2 cell viability assay in 384 well format
Assay type: toxicity, cell-based
Parameters: dose 125 nL, time 70.5 hour; cytotoxicity at 70.5 h: concentration not given beside the values
Details: HepG2 cells, read-out: Inhibition

Compound	cytotoxicity at 70.5 h
Cc1cnc2c(c1NCc1ccccn1)c(=O)n(C)c(=O)n2C	-11.2%
CC(c1nc(C(C)(C)C)no1)S(=O)(=O)CC(=O)N1CCCC1 (stereo not drawn)	-2.18%
Cc1nn(C)cc1-c1cc(C(F)(F)F)nc(NC2CCCCC2)n1	-9.44%
Cc1nn(CC(=O)N2CCN(Cc3cnn(C)c3C)CC2)cc1Cl	-9.22%
CC(C)NC(=O)C1CCC2(CCNCC2)C1 (stereo not drawn)	-1.82%
Cc1cc(NCC(=O)N(C)C(C)c2cccs2)c(C(N)=O)cc1F (stereo not drawn)	1.44%
CCN(CC)C(=O)Nc1cc2c(cc1SC)OCCO2	-6.83%
Cc1nc(N2CCCC2)nc2c1CCN(C(=O)C1CCC1)CC2	-12.5%
CC(C)Cn1cc(NC(=O)N2CCCC2)cn1	0.273%
CCN(Cc1cc(Cl)ccc1OC)Cc1nccn1C	12.7%
O=S(=O)(c1cccnc1)N1C[C@H]2CCC[C@@]2(COc2ccccn2)C1	-7.2%
COc1ccccc1NC(=O)CC(C)NCCc1sc(C)nc1C (stereo not drawn)	8.63%
O=C(NCC(Cc1cccc(F)c1)N1CCCC1=O)c1ccccc1 (stereo not drawn)	4.11%
CSc1ccc(-c2nc(CN3CCC(C(N)=O)CC3)c(C)o2)cc1	-6.77%
Cc1nn(C)c2nc(N3CCCCC3c3nccs3)sc12 (stereo not drawn)	5.1%
CCO[C@@H]1CC[C@H]2[C@H]1OCCN2C(=O)c1ccc(OC)c(F)c1	-4.73%
Cc1ccc(CNC(=O)N(C)Cc2ccc([S+](C)[O-])cc2)s1 (stereo not drawn)	-6.72%
C1CC(CO[C@@H]2CC[C@H]3[C@H]2OCCN3CC2CCOCC2)CCO1	-81.4%
Fc1ccc2[nH]c(C3CCCN3Cc3c[nH]cn3)nc2c1 (stereo not drawn)	28.4%
CN(c1ncccc1C#N)C1CCN(CCc2ccncc2)CC1	-1.68%
O=C(O)C(c1ccc(O)cc1)N1CCC(N2CCSCC2)CC1 (stereo not drawn)	-0.773%
COCCO[C@H]1CCN(Cc2ccoc2)[C@H]1Cc1cccnc1	-0.128%
O=C(O)CCc1cccc(C2CCCN2Cc2cccc(Cl)c2)n1 (stereo not drawn)	-0.284%

Compound	cytotoxicity at 70.5 h
CNC(=O)[C@@]12CCCN(c3ncccn3)[C@@H]1CN(C)C2	29.8%
O=C(CCCc1ccccn1)N1CCC(Nc2cccnn2)CC1	-0.523%
CC(C)NC(=O)N1CC[C@@H]2CN(S(C)(=O)=O)CCO[C@@H]2C1	-4.96%
CCc1ncc(C(=O)c2ccc(OC)cc2)n1C	17.9%
CCCNC(=O)NC(=O)CN1C=Nc2ccccc2S1(=O)=O	-11.8%
C[C@@H]1CN(S(=O)(=O)N2CCOCC2)C[C@@]1(O)C1CC1	-2.98%
NS(=O)(=O)N1CCc2ccc(NC(=O)Cc3ccccc3F)cc21	22.4%
CC(NC(=O)N1CCN(c2ccccc2O)CC1)c1nncn1C (stereo not drawn)	1.59%
O=C(Cc1ccccc1F)N1CCCCC1c1ccn2ccnc2n1 (stereo not drawn)	-6.86%
COc1cccc2c1OCC(C(=O)N1CCN(S(C)(=O)=O)CC1)C2 (stereo not drawn)	20.3%
CN(Cc1ccccn1)C(CO)c1cccc(Br)c1 (stereo not drawn)	-1.08%
COC(=O)c1cccc(C(=O)N2CCN(c3cc(C)ccc3C)CC2)n1	0.723%
CS(=O)(=O)Cc1cc(Cl)c2c(c1)OCCCO2	-3.38%
CN(C)c1ncc(CN2CCC(O)(c3ccccc3F)CC2)cn1	-2.07%
O=C(Nc1cc(-c2ccccc2)on1)N1CCN(CCO)CC1	-6.53%
Cc1nc(CN2CCCC(Nc3ncnc4ccccc34)C2)no1 (stereo not drawn)	-5.36%
CCc1ncncc1C(=O)NCCNc1ncnc2sccc12	-21.7%
CC(=O)N1[C@H](Cn2cncn2)C[C@@H]2CN(C(=O)c3ccoc3)CC[C@@H]21	-6.21%
Cc1[nH]ncc1C(=O)N1CCCC1c1noc(C2CC2)n1 (stereo not drawn)	19.4%
Cc1nc(CNC(=O)N2CCN(c3ccc(Cl)cn3)CC2)no1	3.34%
CC(CO)CNC(=O)c1cc2cccc(F)c2o1 (stereo not drawn)	-9.63%
Cc1ncsc1C(=O)NC1CCN(Cc2ccc(C(N)=O)cc2)CC1	1.08%
Cc1nc(NC(=O)c2ccc(-n3ncc(C#N)c3N)cc2)sc1C	17%

Compound	cytotoxicity at 70.5 h
Cc1nc(C2CCCN(C(=O)COCc3ccccc3)C2)no1 (stereo not drawn)	-12.6%
CCc1nnc(CN2CCOC(Cn3cc(C)cn3)C2)o1 (stereo not drawn)	-6.6%
Cc1cccc(COc2ccc(NC(=O)C(C)NC(N)=O)c(C)c2)c1 (stereo not drawn)	-9.19%
CC(C)N1C(=O)CC(N2CCN(c3ccc(F)cc3)CC2)C1=O (stereo not drawn)	6.65%
Cc1ccc(-c2nc(CN3CCn4c(C)nnc4C3)cs2)o1	-7.11%
Cc1nn(C)c(Oc2ccc(Cl)cc2)c1CN1CCOC(CN)C1 (stereo not drawn)	-2.25%
O=C(N1CCOCC1)[C@@]12CCO[C@@H]1CCN(CC1CCCCC1)C2	27.8%
NCCn1nc(C2CCN(C(=O)Cc3ccccc3)C2)c2nccnc21 (stereo not drawn)	-5.36%
COc1ccc(Br)cc1CN(C)C(C)c1nc(C(C)C)no1 (stereo not drawn)	-19.6%
CC(C)NC(=O)CN1CCC(c2cccc(F)c2)C1 (stereo not drawn)	22.8%
CCc1nsc(N2CCCN(C(=O)c3ccc(CC)o3)CC2)n1	-11%
Fc1ccccc1OC1CCN(CCn2cc3ccccc3n2)CC1	-22%
CC(C)C(=O)NC1COC2(CCN(C(=O)c3ccc[nH]3)CC2)C1 (stereo not drawn)	-7.92%
CC(Cn1ccnc1)NCc1csc2c1CCCC2 (stereo not drawn)	-0.368%
COc1cccc2cc(CNCc3ccc(N4CCCC4)nc3)oc12	16%
O=C1CCN(C(=O)NCC(c2ccccc2)c2ccccc2)CCN1	-2.48%
CC(C)(C)S(=O)(=O)c1ccc(N2CCC(n3ccnc3)CC2)cn1	-12.2%
CS(=O)(=O)NCc1cccc(COC2CCCCC2)c1	-3.13%
Cc1cc(CN2Cc3ccccc3CC2c2nnc(C)o2)on1 (stereo not drawn)	-6.94%
Cc1cc(C)cc(-n2ncc3c2CCCC3N)c1 (stereo not drawn)	-5.06%
O=C(COCCOc1ccccc1)NC1CCN(c2ncccn2)CC1	41.6%
O=C(N[C@@H]1CCN(c2nccc3ccccc23)C[C@H]1O)c1cnccn1	9.52%
CCc1noc(CNc2nc(-c3cccnc3)nc3c2CCNCC3)n1	-14.3%

Compound	cytotoxicity at 70.5 h
COCCN1CCN(C(=O)c2cc(C(C)C)on2)[C@H]2CS(=O)(=O)C[C@H]21	2.11%
Cc1ncsc1CN1C[C@@H]2COC[C@]2(C(=O)NCc2ccccn2)C1	-9.2%
Cc1ncsc1C(=O)NCCNc1ncccn1	13.7%
COc1cccc(CNCc2cccc(Cl)c2)c1O	-4.96%
CSC(C)(C)CNC(=O)NC1CCSCC1	-6.55%
O=C(Cn1ccc2ccc(Br)cc21)NC[C@@H]1CCCN2CCCC[C@H]12	41.4%
CC(=O)N1CC(=O)N(c2cnn(C)c2)CC12CCN(Cc1ccsc1)C2 (stereo not drawn)	21.7%
CCN(CC)S(=O)(=O)N1C[C@@H](c2ccccc2)[C@H]2[C@H]1CCCCCN2C	-1.32%
Cc1nn(C)cc1CN(C)Cc1cc2c(cc1OC(F)F)OCO2	-7.7%
CCc1nc(NCCCn2cccn2)c2c(n1)c(C)nn2CC	14.8%
Cn1cnc2c1CCN(CC(=O)NC1CCCCNC1=O)C2 (stereo not drawn)	15.2%
O=C1[C@H]2CN(Cc3ccc(F)cc3)C[C@H]2CN1c1ccsc1	-13.2%
Cc1nsc(NC(=O)NC2CCCOC2)n1 (stereo not drawn)	23%
Cn1cnnc1CC1CCN(Cc2c(Cl)cncc2Cl)CC1	16.9%
CCn1ncnc1C(C)NC(=O)C1CCN(Cc2ccco2)CC1 (stereo not drawn)	-0.537%
Cn1cnnc1C1CCN(c2cncc(-n3cccn3)n2)CC1	1.11%
Cc1[nH]ncc1CCCNC(=O)N1CCC(C(N)=O)CC1	-4.17%
COC(C)c1noc(CN(C)c2ncc(Br)cn2)n1 (stereo not drawn)	-3.46%
COc1ccc(CCN2CCc3c(nc(C4CC4)n3C)C2)cc1	-2.39%
CC(C)CC(=O)N1CC[C@@H]2CN(Cc3cccnc3)S(=O)(=O)[C@@H]2CC1	-4.78%
COc1ccc2c(c1)nc1n2[C@@H](CNC(=O)c2ccccn2)COC1	-7.73%
CCN1CCN(C(=O)c2ccnc(N(C)C)c2)CC1	3.26%
Cc1ccc(N2CC[C@H](OCC3CC3)[C@@H]2Cc2cccnc2)nn1	1.2%

Compound	cytotoxicity at 70.5 h
CCc1nc(CN(C(C)=O)C2CCN(CCc3cnn(C)c3)C2)no1 (stereo not drawn)	21.3%
CNC(=O)c1cccnc1NCc1ccc(-n2cccn2)cc1	4%
O=C(C1=CC2(CCN(CCO)CC2)c2ccccc21)N1CCCC1	-4.5%
Cc1cccc(C)c1OC1CN(C(=O)C2CC(=O)N(C(C)(C)C)C2)C1 (stereo not drawn)	18.1%
COc1cccc(CNc2cnn(CC(F)F)c2)c1	3.29%
O=C1CC2(CCN(S(=O)(=O)c3cccs3)C2)CN1c1cccc(F)c1 (stereo not drawn)	-9.07%
NC(=O)NC(=O)CCSCc1coc(-c2ccc(F)cc2)n1	-3.5%
O=S(=O)(CCCN1CCCCC1Cn1cncn1)c1ccccc1 (stereo not drawn)	-4.13%
COC(=O)CNC(=O)c1cc(-c2ccccc2)nc2ncnn12	-0.256%
CCOC(C(=O)N1CCn2c(CC)nnc2C1)c1ccccc1 (stereo not drawn)	-11.9%
CN(Cc1cn2c(n1)CN(C(=O)c1ccc[nH]1)CC2)Cc1ccco1	0.342%
Cc1cccnc1NC(=O)NCc1cccnc1OC(C)C	-6.17%
COc1ccccc1-c1nnc([C@H]2CCN(C(C)=O)C2)o1	-6.37%
Cn1ccc2c(C(=O)N3CCCC(c4nnc[nH]4)C3)cccc21 (stereo not drawn)	4.32%
CNC(=O)[C@@H]1C[C@@H](NC(=O)Cc2cccs2)CN1C1CCOCC1	-3.22%
O=C(Nc1ccccc1)C1=NOC2(CCCN(C(=O)N3CCCC3)C2)C1 (stereo not drawn)	-0.586%
Cc1cc(N(C)CC2COc3ccccc3O2)nc(C)n1 (stereo not drawn)	9.74%
COc1ccc(OC)c(C(C)Nc2nc3c(C)nn(C)c3c(=O)n2C)c1 (stereo not drawn)	12.4%
Nc1nnc(SCc2cc(=O)n3c4c(sc3n2)CCCC4)[nH]1	-3.97%
Cc1cnc(C(=O)N2C[C@H]3CN(Cc4nccs4)C[C@H]3C2)cn1	-5.82%
CCS(=O)(=O)NCCNC(=O)c1cc(Cl)c2c(c1)OCCCO2	-9.4%
